# Source: PubChem BioAssay (NCI)
#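 48-hour exposure; five concentrations; linearly interpolated endpoints. Here, GI50 denotes the concentration required for 50% inhibition of growth. TGI: concentration producing complete growth inhibition.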
# What was measured:
# Test in all cases: DTP human tumour cell line panel, 48 h
# MDA-MB-468 breast = system: MDA-MB-468 breast
# BT-549 breast = system: BT-549 breast
# COLO 205 colon = system: COLO 205 colon
# NCI/ADR-RES ovarian = system: NCI/ADR-RES ovarian
# CCRF-CEM leukemia = system: CCRF-CEM leukemia
# NCI-H460 lung = system: NCI-H460 lung
# EKVX NSCLC = system: EKVX NSCLC
# MCF7 breast = system: MCF7 breast
# SK-OV-3 ovarian = system: SK-OV-3 ovarian
# SF-268 CNS = system: SF-268 CNS
# U251 CNS = system: U251 CNS
# SNB-19 CNS = system: SNB-19 CNS
# CAKI-1 renal = system: CAKI-1 renal
# NCI-H23 lung = system: NCI-H23 lung
# SF-295 CNS = system: SF-295 CNS
# SNB-75 CNS = system: SNB-75 CNS
# HOP-92 NSCLC = system: HOP-92 NSCLC
# HS 578T breast = system: HS 578T breast
# DU-145 prostate = system: DU-145 prostate
# HL-60(TB) leukemia = system: HL-60(TB) leukemia
# SW-620 colon = system: SW-620 colon
# M14 melanoma = system: M14 melanoma
# LOX IMVI melanoma = system: LOX IMVI melanoma
# MOLT-4 leukemia = system: MOLT-4 leukemia
# SR leukemia = system: SR leukemia
# KM12 colon = system: KM12 colon
# SK-MEL-5 melanoma = system: SK-MEL-5 melanoma
# RPMI-8226 leukemia = system: RPMI-8226 leukemia
# SK-MEL-2 melanoma = system: SK-MEL-2 melanoma
# T-47D breast = system: T-47D breast
# UACC-257 melanoma = system: UACC-257 melanoma
# A549 NSCLC = system: A549 NSCLC
# OVCAR-5 ovarian = system: OVCAR-5 ovarian
# A498 renal = system: A498 renal
# ACHN renal = system: ACHN renal
# HOP-62 NSCLC = system: HOP-62 NSCLC
# K-562 leukemia = system: K-562 leukemia
# RXF 393 renal = system: RXF 393 renal
# UACC-62 melanoma = system: UACC-62 melanoma
# NCI-H522 lung = system: NCI-H522 lung
# HT29 colon = system: HT29 colon
# OVCAR-4 ovarian = system: OVCAR-4 ovarian
# HCT-15 colon = system: HCT-15 colon
# SK-MEL-28 melanoma = system: SK-MEL-28 melanoma
# MDA-MB-231 breast = system: MDA-MB-231 breast
# SF-539 CNS = system: SF-539 CNS
# IGROV1 ovarian = system: IGROV1 ovarian
# TK-10 renal = system: TK-10 renal
# NCI-H226 lung = system: NCI-H226 lung
# HCT-116 colon = system: HCT-116 colon
# PC-3 prostate = system: PC-3 prostate
# OVCAR-3 ovarian = system: OVCAR-3 ovarian
# MALME-3M melanoma = system: MALME-3M melanoma
# HCC-2998 colon = system: HCC-2998 colon
smiles,measurement,setting,value
CC(=O)c1cccc(Nc2nc3ccc(Cl)cc3c3[nH]c4ccccc4c23)c1,GI50,MDA-MB-468 breast,2840 nM
same,TGI,MDA-MB-468 breast,96800 nM
COC(=O)C1CCCN1C(=O)[C@@H]1CCCN1C(=O)[C@H](Cc1c[nH]c2ccccc12)NC(=S)Nc1cc(C(F)(F)F)cc(C(F)(F)F)c1 (stereo partly specified),GI50,MDA-MB-468 breast,1780 nM
same,TGI,MDA-MB-468 breast,4640 nM
COc1cc2c(cc1OCCCCCOc1ccc(-n3c(C)nc4ccccc4c3=O)cc1)N=C[C@@H]1CCCN1C2=O,GI50,MDA-MB-468 breast,168 nM
same,TGI,MDA-MB-468 breast,462 nM
CCC[CH2][Sn]([CH2]CCC)([CH2]CCC)[O]C(=O)c1ccc(Cl)cc1Cl,GI50,MDA-MB-468 breast,133 nM
same,TGI,MDA-MB-468 breast,274 nM
COc1cccc2c1C(=O)c1c(O)c3c(c(O)c1C2=O)C[C@@](O)(C(=O)CO)C[C@@H]3O[C@H]1C[C@H](N)[C@@H](O)[C@H](C)O1,GI50,MDA-MB-468 breast,94 nM
same,TGI,MDA-MB-468 breast,304 nM
C=C1C(=O)O[C@H]2[C@H]1CCC(/C=N/c1ncc(Br)cc1N)=C\CC[C@@]1(C)O[C@@H]21,GI50,MDA-MB-468 breast,1200 nM
same,TGI,MDA-MB-468 breast,3910 nM
COc1ccc(NC(=O)COCCOCCNC[C@@H]2C(=O)O[C@H]3[C@H]2CC/C(COC(=O)OC/C2=C/CC[C@@]4(C)O[C@H]4[C@H]4OC(=O)[C@@H](CN(C)C)[C@@H]4CC2)=C\CC[C@@]2(C)O[C@@H]32)c(O)c1C(N)=O,GI50,MDA-MB-468 breast,3040 nM
same,TGI,MDA-MB-468 breast,10800 nM
COc1cc(/C=C/C(=O)c2c(C)nc3ccccc3c2/C=C/c2ccc(C)cc2)cc(OC)c1OC,GI50,MDA-MB-468 breast,1880 nM
same,TGI,MDA-MB-468 breast,4260 nM
COc1cccc(OCCCN)c1-c1cc(Nc2cnc(C#N)cn2)n[nH]1,GI50,MDA-MB-468 breast,40.7 nM
same,TGI,MDA-MB-468 breast,2040 nM
CCN1Cc2c(ccc(F)c2C#N)O[C@@H](C)CNC(=O)c2c(N)nn3ccc1nc23,GI50,MDA-MB-468 breast,12500 nM
same,TGI,MDA-MB-468 breast,34300 nM
Nc1nc2n[nH]nc2c(=O)[nH]1,GI50,MDA-MB-468 breast,81.7 nM
same,TGI,MDA-MB-468 breast,792 nM
CC(=O)NCC1=C(C)C=C2C(=O)[C@](C)(O)C3(CC3)C(C)=C21,GI50,BT-549 breast,27.7 nM
same,TGI,BT-549 breast,99.1 nM
same,GI50,COLO 205 colon,39 nM
same,TGI,COLO 205 colon,162 nM
same,GI50,NCI/ADR-RES ovarian,64.8 nM
same,TGI,NCI/ADR-RES ovarian,323 nM
same,GI50,CCRF-CEM leukemia,13500 nM
same,TGI,CCRF-CEM leukemia,> 84900 nM
same,GI50,NCI-H460 lung,22.5 nM
same,TGI,NCI-H460 lung,132 nM
same,GI50,EKVX NSCLC,116 nM
same,TGI,EKVX NSCLC,356 nM
same,GI50,MCF7 breast,214 nM
same,TGI,MCF7 breast,> 20600 nM
same,GI50,SK-OV-3 ovarian,30.1 nM
same,TGI,SK-OV-3 ovarian,99.3 nM
same,GI50,SF-268 CNS,33.2 nM
same,TGI,SF-268 CNS,577 nM
same,GI50,U251 CNS,51 nM
same,GI50,SNB-19 CNS,163 nM
same,TGI,SNB-19 CNS,751 nM
same,GI50,CAKI-1 renal,40.4 nM
same,TGI,CAKI-1 renal,791 nM
same,GI50,NCI-H23 lung,15.9 nM
same,TGI,NCI-H23 lung,37.2 nM
same,GI50,SF-295 CNS,26.2 nM
same,TGI,SF-295 CNS,122 nM
same,GI50,SNB-75 CNS,19.7 nM
same,TGI,SNB-75 CNS,73.5 nM
same,GI50,HOP-92 NSCLC,26.1 nM
same,TGI,HOP-92 NSCLC,70.2 nM
same,GI50,HS 578T breast,204 nM
same,TGI,HS 578T breast,678 nM
same,GI50,DU-145 prostate,27.5 nM
same,TGI,DU-145 prostate,233 nM
same,GI50,HL-60(TB) leukemia,27.9 nM
same,TGI,HL-60(TB) leukemia,876 nM
same,GI50,SW-620 colon,13400 nM
same,TGI,SW-620 colon,38700 nM
same,GI50,M14 melanoma,71.2 nM
same,TGI,M14 melanoma,220 nM
same,GI50,LOX IMVI melanoma,136 nM
same,TGI,LOX IMVI melanoma,354 nM
same,GI50,MOLT-4 leukemia,8440 nM
same,TGI,MOLT-4 leukemia,> 100000 nM
same,GI50,SR leukemia,5700 nM
same,TGI,SR leukemia,> 100000 nM
same,GI50,KM12 colon,257 nM
same,TGI,KM12 colon,5850 nM
same,GI50,SK-MEL-5 melanoma,70.4 nM
same,TGI,SK-MEL-5 melanoma,216 nM
same,GI50,RPMI-8226 leukemia,22900 nM
same,TGI,RPMI-8226 leukemia,> 83500 nM
same,GI50,SK-MEL-2 melanoma,179 nM
same,TGI,SK-MEL-2 melanoma,346 nM
same,GI50,T-47D breast,43.8 nM
same,TGI,T-47D breast,840 nM
same,GI50,UACC-257 melanoma,93.4 nM
same,TGI,UACC-257 melanoma,290 nM
same,GI50,A549 NSCLC,31.2 nM
same,TGI,A549 NSCLC,330 nM
same,GI50,OVCAR-5 ovarian,34.2 nM
same,TGI,OVCAR-5 ovarian,240 nM
same,GI50,A498 renal,25.7 nM
same,TGI,A498 renal,65.5 nM
same,GI50,ACHN renal,22.8 nM
same,TGI,ACHN renal,57.8 nM
same,GI50,HOP-62 NSCLC,24.6 nM
same,TGI,HOP-62 NSCLC,76.1 nM
same,GI50,K-562 leukemia,15000 nM
same,TGI,K-562 leukemia,> 100000 nM
same,GI50,RXF 393 renal,16.4 nM
same,TGI,RXF 393 renal,32.8 nM
same,GI50,UACC-62 melanoma,132 nM
same,TGI,UACC-62 melanoma,278 nM
same,GI50,NCI-H522 lung,254 nM
same,TGI,NCI-H522 lung,997 nM
same,GI50,HT29 colon,35.6 nM
same,GI50,OVCAR-4 ovarian,71 nM
same,TGI,OVCAR-4 ovarian,322 nM
same,GI50,HCT-15 colon,44 nM
same,TGI,HCT-15 colon,325 nM
same,GI50,MDA-MB-468 breast,< 13.6 nM
same,TGI,MDA-MB-468 breast,30.3 nM
same,GI50,SK-MEL-28 melanoma,125 nM
same,TGI,SK-MEL-28 melanoma,293 nM
same,GI50,MDA-MB-231 breast,67 nM
same,TGI,MDA-MB-231 breast,306 nM
same,GI50,SF-539 CNS,22.5 nM
same,TGI,SF-539 CNS,56.5 nM
same,GI50,IGROV1 ovarian,28 nM
same,TGI,IGROV1 ovarian,80.4 nM
same,GI50,TK-10 renal,36.4 nM
same,GI50,NCI-H226 lung,143 nM
same,TGI,NCI-H226 lung,615 nM
same,GI50,HCT-116 colon,50.9 nM
same,GI50,PC-3 prostate,68 nM
same,TGI,PC-3 prostate,898 nM
same,GI50,OVCAR-3 ovarian,39.7 nM
same,TGI,OVCAR-3 ovarian,472 nM
same,GI50,MALME-3M melanoma,60.2 nM
same,TGI,MALME-3M melanoma,181 nM
same,GI50,HCC-2998 colon,28.7 nM
same,TGI,HCC-2998 colon,103 nM
